# Laboratory results as given in ChEMBL document CHEMBL1201862, “PubChem BioAssay data set” (2004).
# The source made the active and inactive calls.
# Assays:
# [1] = luciferase reporter signal suppression in cells – H4 neuroglioma cells, luminescence, dose response (AID 1990); format: functional, cell-based
# [2] = Luminescence Cell-Based Dose Retest to Confirm Activators of 5'UTR Stem-Loop Driven Alpha-Synuclein mRNA Translation in H4 Neuroglioblastoma Cells. [Related pubchem assays (depositor defined):AID1813, AID1829]; format: functional
# [3] = HEK-293T viability loss after treatment – luminescence, T-cell screen hits, cytotoxicity control for TCR NF-kB inhibitor project, dose response (AID 489026); format: functional, cell-based;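 also: cells exposed to compound about 14 hours before the viability readout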
# [4] = Luminescence Cell-Based Dose Response HTS to Identify Inhibitors of 5'UTR Stem-Loop Driven Prion Protein mRNA Translation in H4 Neuroglioblastoma Cells. [Related pubchem assays: 1827 (Project Summary), 1813 (Primary HTS)]; format: functional
# [5] = Luminescence Cell-Based Dose HTS Response to Identify Inhibitors of 5'UTR Stem-Loop Driven Prion Protein mRNA Translation in H4-C Neuroglioblastoma Cells. [Related pubchem assays (depositor defined):AID1814, AID1827]; format: functional
# [6] = Luminescence Cell-Based Dose Response HTS to Identify Inhibitors of Luciferase Translation or Activity in H4-C Neuroglioblastoma Cells. [Related pubchem assays: 1813 (Primary HTS), 1827 (Project Summary)]; format: functional
# [7] = Luminescence Cell-Based Dose Response HTS to Identify Activators of 5'UTR Stem-Loop Driven Prion Protein mRNA Translation in H4-C Neuroglioblastoma Cells. [Related pubchem assays: 1829 (Project Summary), 1814 (Primary HTS)]; format: functional
# [8] = Luminescence Cell-Based Dose Response HTS to Identify Activators of Luciferase Translation or Activity in H4-C Neuroglioblastoma Cells. [Related pubchem assays: 1829 (Project Summary), 1814 (Primary HTS)]; format: functional
# [9] = alpha-synuclein stem-loop luciferase translation blockers – H4 neuroglioma cells, luminescence, confirmation (AID 1988); format: functional, cell-based
# [10] = Luminescence Cell-Based Dose Confirmation HTS to Identify Inhibitors of 5'UTR Stem-Loop Driven Alpha-Synuclein mRNA Translation in H4 Neuroglioblastoma Cells. [Related pubchem assays: 1827 (Project Summary), 1813 (Primary HTS)]; format: functional
# [11] = target: T1, Probable nicotinate-nucleotide adenylyltransferase (Staphylococcus aureus (strain N315), UniProt P65502); format: functional, Staphylococcus aureus subsp. aureus N315; details: read-out: IC50_Mean;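 as to IC50 Mean: confirmatory dose-response retesting of NadD inhibitor hits first found in an ultra-high-throughput screen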
# [12] = target: T2, Voltage-gated N-type calcium channel alpha-1B subunit/Amyloid beta A4 precursor protein-binding family A member 1 (Homo sapiens, UniProt Q00975+Q02410); format: protein assay
# [13] = target: NS3 (Hepatitis C virus, UniProt A3EZJ3); assay: PubChem AID 2173; set-up: species or system Hepacivirus hominis
# [14] = target: Induced myeloid leukemia cell differentiation protein Mcl-1 (Homo sapiens, UniProt Q07820); format: functional
# [15] = target: T3, Runt-related transcription factor 1/Core-binding factor subunit beta (Homo sapiens, UniProt Q01196+Q13951); assay: disruptors of Runt domain/CBFb-SMMHC interaction – biochemical, FRET, Cerulean-Runt, Venus-CBFb-SMMHC, uHTS, […] (AID 1434); format: protein assay
# [16] = target: T2, Voltage-gated N-type calcium channel alpha-1B subunit/Amyloid beta A4 precursor protein-binding family A member 1; format: protein assay; remark: listed apart in the source
# [17] = target: T1, Probable nicotinate-nucleotide adenylyltransferase; format: functional, Staphylococcus aureus subsp. aureus N315
# [18] = target: T2, Voltage-gated N-type calcium channel alpha-1B subunit/Amyloid beta A4 precursor protein-binding family A member 1; assay: disruptors of Mint-PDZ/N-type channel peptide interaction – biochemical, HTRF, SAR follow-up (AID 2489); format: functional
# [19] = target: T3, Runt-related transcription factor 1/Core-binding factor subunit beta; assay: Runt domain/CBFb-SMMHC interaction disruptors – biochemical, TR-FRET (AID 1438); format: protein assay
# [20] = target: Peroxisome proliferator-activated receptor gamma (Homo sapiens, UniProt P37231); assay: PPARg transcriptional activation, reporter cells – cell-based, luminescence, assay provider, dose response (AID 504447); format: functional
# [21] = target: T4, E3 ubiquitin-protein ligase XIAP (Homo sapiens, UniProt P98170); assay: Chemical Antagonists of IAP-family anti-apoptotic proteins confirmation. [Related pubchem assays (depositor defined):AID1018, AID1513, AID1514, AID1638, AID1749, AID1750, AID488957, AID488963]
# [22] = target: T4, E3 ubiquitin-protein ligase XIAP; assay: Counter Screen using XIAP-Bir3 of the Chemical Antagonists of IAP-family anti-apoptotic proteins confirmation assay. [Related pubchem assays (depositor defined):AID1018, AID1449, AID1513, AID1638, AID1749, AID1750, AID488957, AID488963]
# [23] = target: T5, COUP transcription factor 2 (Homo sapiens, UniProt P24468); assay: Luminescence-based cell-based high throughput dose response assay to identify inhibitors of COUP-TFII (NR2F2).; format: functional;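 also: HEK293 cells transiently cotransfected with COUP-TFII expression vector and reporter; luciferase reporter luminescence driven by COUP-TFII from the pX2-168 reporter plasmid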
# T5 sequence (P24468 whole entry): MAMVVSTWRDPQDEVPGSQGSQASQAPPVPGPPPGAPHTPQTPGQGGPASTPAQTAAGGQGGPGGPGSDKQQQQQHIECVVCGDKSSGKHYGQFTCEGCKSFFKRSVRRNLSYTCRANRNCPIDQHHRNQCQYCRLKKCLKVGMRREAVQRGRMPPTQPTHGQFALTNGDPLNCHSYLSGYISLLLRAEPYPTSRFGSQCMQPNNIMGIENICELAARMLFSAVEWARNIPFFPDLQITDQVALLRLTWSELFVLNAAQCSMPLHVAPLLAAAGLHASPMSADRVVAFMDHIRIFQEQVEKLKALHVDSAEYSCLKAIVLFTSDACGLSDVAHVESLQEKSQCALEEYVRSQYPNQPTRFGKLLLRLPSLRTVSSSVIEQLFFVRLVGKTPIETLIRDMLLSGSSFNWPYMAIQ
# [24] = target: Signal transducer and activator of transcription 3 (Homo sapiens, UniProt P40763); assay: STAT3 blockade with qPCR and toxicity readouts – cell-based, STAT1 panel, cytotoxicity, late-stage follow-up, panel member STAT3 Inhibition (AID 2078)
# [25] = target: Signal transducer and activator of transcription 1-alpha/beta (Homo sapiens, UniProt P42224); assay: STAT3 blockade with qPCR and toxicity readouts – cell-based, STAT1 panel, cytotoxicity, late-stage follow-up, panel member STAT1 Inhibition (AID 2078)
# [26] = target: G-protein coupled receptor 55 (Homo sapiens, UniProt Q9Y2T6); assay: SAR analysis of selective Agonists of GPR55 using an Image-Based Assay - Set 2. [Related pubchem assays (depositor defined):AID1961, AID1965]; format: functional
# [27] = target: T6, Cannabinoid receptor 1 (Homo sapiens, UniProt P21554); assay: SAR analysis of agonists of the Cannabinoid Receptor 1 using an Image-Based Assay - Set 3. [Related pubchem assays (depositor defined):AID1961, AID1965]; format: functional
# [28] = target: T6, Cannabinoid receptor 1; assay: SAR analysis of antagonists of the Cannabinoid Receptor 1 using an Image-Based Assay - Set 3. [Related pubchem assays (depositor defined):AID1961, AID1965]; format: functional
# [29] = target: T7, Cannabinoid receptor 2 (Homo sapiens, UniProt P34972); assay: SAR analysis of antagonists of the Cannabinoid Receptor 2 using an Image-Based Assay - Set 2. [Related pubchem assays (depositor defined):AID1961, AID1965]; format: functional
# [30] = target: T8, G-protein coupled receptor 35 (Homo sapiens, UniProt Q9HC97); assay: SAR analysis of Agonists of the GPR35 Receptor using an Image-Based Assay - Set 3. [Related pubchem assays (depositor defined):AID1961, AID1965]; format: functional
# [31] = target: T8, G-protein coupled receptor 35; assay: SAR analysis of Antagonists of the GPR35 Receptor using an Image-Based Assay - Set 4. [Related pubchem assays (depositor defined):[…]]; format: functional
# [32] = target: T7, Cannabinoid receptor 2; assay: SAR analysis of agonists of the Cannabinoid Receptor 2 using an Image-Based Assay - Set 2. [Related pubchem assays (depositor defined):AID1961, AID1965]; format: functional
# [33] = target: T9, Kappa-type opioid receptor (Homo sapiens, UniProt P41145); assay: SAR analysis of small molecule agonists of the kappa opioid receptor via a luminescent beta-arrestin assay - Set 3. [Related pubchem assays (depositor defined):AID1777, AID1785, AID1786, AID1966, AID2133, AID2136, AID2284, AID2500]; format: functional
# [34] = target: T9, Kappa-type opioid receptor; assay: kappa opioid receptor activation by imaging – image-based, set 3, SAR follow-up (AID 488833); format: functional
# [35] = target: Mu-type opioid receptor (Homo sapiens, UniProt P35372); assay: SAR Analysis of Agonists of the MOR Receptor using an Image-Based Assay - Set 3. [Related pubchem assays (depositor defined):AID1777, AID1785, AID1786, AID1966, AID2133, AID2136, AID2284, AID2285, AID2352]; format: functional
# [36] = target: Delta-type opioid receptor (Homo sapiens, UniProt P41143); assay: SAR Analysis of Agonists of the DOR Receptor using an Image-Based Assay - Set 3. [Related pubchem assays (depositor defined):AID1777, AID1786]; format: functional
# [37] = target: Heat shock protein HSP 90-alpha (Homo sapiens, UniProt P07900); format: functional, organism-based
# [38] = system: Streptococcus sp. 'group A'; assay: Streptococcus pyogenes SK(-)GAS viability under kanamycin – luminescence, BacTiterGlo, confirmation, counter-screen for streptokinase expression inhibitor project, dose response (AID 1900); format: functional, organism-based
# [39] = target: Troponin, cardiac muscle (Homo sapiens, UniProt P19429+P45379+P63316); assay: Fluorescence-based biochemical high throughput dose response assay for activators of the calcium sensitivity of cardiac Regulated Thin Filaments (RTF). [Related pubchem assays (depositor defined):AID493008, AID493018, AID504382, AID504383]; format: protein-complex assay
# [40] = system: Streptococcus; assay: GAS UMAA2166 growth inhibition – luminescence, BacTiterGlo, counter-screen for streptokinase expression inhibitor project, dose response (AID 1915); format: functional, organism-based;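 also: potency for reduction of bacterial viability or growth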
# [41] = system: INS1; assay: INS-1E survival protection against cytokine death – cell-based, luminescence, retest, dose response (AID 449756); format: functional; details: Rattus norvegicus;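 also: cell death triggered by IL-1 beta plus TNF-alpha plus IFN-gamma mixture; protective hits raise ATP signal compared with cytokine alone wells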
# [42] = target: T10, Streptokinase A (Streptococcus pyogenes serotype M1, UniProt P10520); assay: viability-normalized secreted streptokinase activity reduction – plasminogen activation absorbance, OD405, dose response (AID 1914); format: functional, Streptococcus pyogenes M1 GAS;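 also: secreted streptokinase activity via plasminogen activation per viability signal from cell pellet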
# T10 sequence (P10520 whole entry): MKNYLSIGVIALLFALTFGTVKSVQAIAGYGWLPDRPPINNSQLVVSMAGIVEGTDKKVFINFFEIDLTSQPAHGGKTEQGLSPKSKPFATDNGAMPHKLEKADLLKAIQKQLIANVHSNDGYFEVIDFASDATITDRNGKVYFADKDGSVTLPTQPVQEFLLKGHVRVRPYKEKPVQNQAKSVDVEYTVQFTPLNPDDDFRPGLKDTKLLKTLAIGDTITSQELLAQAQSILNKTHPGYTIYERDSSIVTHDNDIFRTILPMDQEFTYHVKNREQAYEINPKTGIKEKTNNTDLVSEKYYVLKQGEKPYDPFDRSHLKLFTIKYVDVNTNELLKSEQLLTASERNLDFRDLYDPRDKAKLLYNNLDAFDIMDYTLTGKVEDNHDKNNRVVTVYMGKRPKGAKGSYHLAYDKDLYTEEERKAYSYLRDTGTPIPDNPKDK
# [43] = PhoP promoter GFP reporter reduction in Typhimurium – purified and synthesized compounds, set 2, PhoP regulon inhibitor project, dose response (AID 2831); format: functional
compound,measurement,setting,value
CCOC(=O)c1[nH]c(C)c(C(=O)c2cc(F)ccc2F)c1C,EC50,[1],10.6 µM (active)
same,EC50,[2],1.66 µM (inconclusive)
same,IC50,[3],> 80 µM (inactive)
same,EC50,[4],11.5 µM (active)
same,EC50,[5],0.241 µM (active)
same,EC50,[6],0.557 µM (active)
same,EC50,[7],0.241 µM (inconclusive)
same,EC50,[8],0.557 µM (inconclusive)
same,EC50,[9],0.2 µM (active)
same,EC50,[10],1.66 µM (active)
O=C(COC(=O)c1c2c(nc3ccccc13)/C(=C/c1ccco1)CC2)NC1CCCC1,IC50,[11],15 µM (active)
same,IC50,[12],5.81 µM (active)
same,IC50,[13],12.6 µM (not active)
same,IC50,[14],6.5 µM (active)
same,IC50,[15],> 100 µM (inactive)
same,IC50,[16],9.12 µM (active)
same,IC50,[17],6.95 µM (active)
same,IC50,[18],3.75 µM (active)
same,IC50,[19],10.4 µM (active)
COc1cccc(Cn2nc3c4cc(F)ccc4n(Cc4ccc(F)cc4)cc-3c2=O)c1,EC50,[20],0.502 µM (active)
O=C(O)C(c1ccc(F)cc1)N1Cc2ccccc2C1=O (stereo unspecified),IC50,[21],> 200 µM (inactive)
same,IC50,[22],> 200 µM (inactive)
O=C(c1ccccc1)C1CCN(c2ncnc3sccc23)CC1,IC50,[23],5.71 µM (active)
same,IC50,[24],0.688 µM (active)
same,IC50,[25],> 55.7 µM (inactive)
COc1ccc(S(=O)(=O)N2CCOCC2)cc1NC(=O)c1ccc(OCC(C)C)c(OC)c1,EC50,[26],4.56 µM (active)
same,EC50,[27],> 32 µM (inactive)
same,IC50,[28],> 32 µM (inactive)
same,IC50,[29],> 32 µM (inactive)
same,EC50,[30],> 32 µM (inactive)
same,IC50,[31],> 32 µM (inactive)
same,EC50,[32],> 32 µM (inactive)
COC(=O)c1ccc(CSc2nnc(-c3ccccn3)n2Cc2cccs2)cc1,EC50,[33],6.14 µM (active)
same,EC50,[34],5.99 µM (active)
same,EC50,[35],> 32 µM (inactive)
same,EC50,[36],> 32 µM (inactive)
O=C(N/N=C/c1sc2ccccc2c1O)c1ccccc1,AC50,[37],1.02 µM (active)
same,EC50,[38],0.702 µM (active)
same,EC50,[39],3.91 µM (active)
same,EC50,[40],10.1 µM (active)
same,AC50,[41],0.864 µM (active)
CSc1nc2cc(Cl)c(Oc3cccc(Cl)c3Cl)cc2[nH]1 [TRICLABENDAZOLE],AC50,[37],4.25 µM (active)
same,EC50,[38],2.26 µM (active)
same,EC50,[42],4.69 µM (active)
same,EC50,[40],6.22 µM (active)
same,IC50,[43],> 125 µM (active)
